Test results: patent US10906890B2, “Triazole phenyl compounds as agonists of the APJ receptor” (AMGEN INC., priority 2016, dated 2021)

Key:
[1] = system: Heart failure rat model (MI Rat Model); assay: In vivo heart failure (MI) rat model, cardiac contractility; conditions: heart failure rats in vivo, acute settings, with ACE inhibitor captopril
Protocol: Based on the ex vivo findings in isolated heart assay, APJ agonists were dosed in vivo to investigate the translation of cardiac contractility in in vivo settings. Male Lewis rats (Charles River, USA) at 2-3 months of age were used for the study. Heart failure was induced by permanent ligation of the left descending coronary artery which results in injury to the heart with an ejection fraction of <35%. APJ agonists were administered dose dependently acutely for a period of 30 min. Administration of example compounds lead to an increase in cardiac contractility as measured by dP/dtmax (derivative of left ventricular pressure) (Table 29).

human APJ receptor = human APJ receptor (Homo sapiens (Human), UniProt P35414); assay: [35S]GTPγS binding assay on membranes from CHO cells stably expressing human APJ receptor; type: biochemical; conditions: means of several independent experiments, read-out: Activity hAPJ SPA EC50 IP
How it was run: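 Membranes from CHO cells stably expressing FLAG-tagged human APJ incubated with [35S]GTPγS in buffer with optimized GDP, MgCl2 and NaCl levels, 90 min at RT. Signal read by imaging; EC50 by non-linear regression from means of several independent experiments.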

[2] = target: human APJ-AT1R (angiotensin Type 1) double stable CHO cell line (Homo sapiens (Human), UniProt P35414); assay: IP1 accumulation (TR-FRET) with AngII in APJ-AT1R double stable CHO cells; type: cell-based; conditions: fixed concentration of agonist with different concentrations of AngII
human APJ-AT1R (angiotensin Type 1) double stable CHO cell line, sequence (P35414 whole entry): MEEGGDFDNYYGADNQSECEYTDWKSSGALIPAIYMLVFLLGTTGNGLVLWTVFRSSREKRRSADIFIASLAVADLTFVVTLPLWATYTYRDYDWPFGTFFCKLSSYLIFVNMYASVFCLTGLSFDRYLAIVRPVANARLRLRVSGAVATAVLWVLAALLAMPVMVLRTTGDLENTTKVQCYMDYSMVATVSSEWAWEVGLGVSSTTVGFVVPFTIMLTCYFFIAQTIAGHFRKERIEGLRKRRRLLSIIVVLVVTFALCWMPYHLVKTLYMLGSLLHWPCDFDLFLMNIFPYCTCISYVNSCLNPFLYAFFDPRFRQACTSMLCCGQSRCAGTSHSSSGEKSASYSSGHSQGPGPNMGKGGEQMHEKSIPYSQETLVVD
Protocol: Briefly, the CHO-K1 APJ/AT1R cells were seeded in culture medium of DMEM-F12 and 10% FBS at a density of 15 k/well in a 96 well plate overnight. The next day, the culture medium was replaced with medium containing no serum for 4 hours. The compound AngII at a range of concentrations (1 pM-10 μM) with or without different concentrations of APJ agonists were diluted in stimulation buffer and added to the cell plate. The plate was sealed and incubated for 1 hour. This was followed by addition of IP-d2 conjugate followed by europium cryptate antibody conjugate into the wells. The plate was sealed, followed with incubation for 2 hours at RT. Time-resolved fluorescence resonance energy (TR-FRET) at 620 nm and 665 nm was measured after 2 hours with an Envision reader. The signal ratios and delta F were calculated and the amount of IP1 produced was inversely proportional to the TR-FRET ratio, 665/620 nm.

human APJ receptor, sequence (P35414 whole entry): as above

Row | Structure (SMILES) | EC50 (human APJ receptor) [nM] | other results
1 | C[C@H](CS)C(=O)N1CCC[C@H]1C(=O)O [Captopril, captopril] |  | improvement in contractility or ejection fraction [1]: does not show a marked improvement in contractility or ejection fraction
2 | COc1cccc(OC)c1-n1c(NS(=O)(=O)[C@@H](C)[C@H](OC)c2ncc(C)cn2)nnc1-c1cccc(Cl)c1 [Example 87.0, (1R,2S)-N-(5-(3-chlorophenyl)-4-(2,6-dimethoxyphenyl)-4H-1,2,4-triazol-3-yl)-1-methoxy-1-(5-methyl-2-pyrimidinyl)-2-propanesulfonamide] | 0.56 | 
3 | COc1cccc(OC)c1-n1c(NS(=O)(=O)[C@@H](C)[C@H](OC)c2ncc(C)cn2)nnc1-c1cccc(OC(F)(F)F)c1 [Example 89.0, (1R,2S)—N-(4-(2,6-Dimethoxyphenyl)-5-(3-(trifluoromethoxy)phenyl)-4H-1,2,4-triazol-3-yl)-1-methoxy-1-(5-methyl-2-pyrimidinyl)-2-propanesulfonamide] | 0.47 | 
4 | COc1cccc(OC)c1-n1c(NS(=O)(=O)[C@@H](C)[C@H](OC)c2ncc(C)cn2)nnc1-c1cccc2ncccc12 [Example 90.0] | 540 | 
5 | COc1cccc(OC)c1-n1c(NS(=O)(=O)[C@@H](C)[C@H](OC)c2ncc(Cl)cn2)nnc1-c1cccc2cn(C)nc12 [Example 91.0] | 2 | 
6 | COc1cccc(OC)c1-n1c(NS(=O)(=O)[C@@H](C)[C@H](OC)c2ncc(C)cn2)nnc1-c1cccc2cn(C)nc12 [Example 92.0] | 60 | 
7 | COc1ncnc(OC)c1-n1c(NS(=O)(=O)[C@@H](C)[C@H](OC)c2ncc(C)cn2)nnc1-c1cccc2cn(C)nc12 [Example 93.0] | 41 | 
8 | COc1ncnc(OC)c1-n1c(NS(=O)(=O)[C@@H](C)[C@H](OC)c2ncc(Cl)cn2)nnc1-c1cccc2cn(C)nc12 [Example 94.0] | 2.9 | 
9 | COc1cccc(OC)c1-n1c(NS(=O)(=O)[C@@H](C)[C@H](OC)c2ncc(C)cn2)nnc1-c1cccc2cnccc12 [Example 95.0] | 340 | 
10 | COCC(COC)n1c(NS(=O)(=O)[C@@H](C)[C@H](OC)c2ncc(Cl)cn2)nnc1-c1ccccc1 [Example 96.0, (1R,2S)-1-(5-Chloro-2-pyrimidinyl)-N-(4-(1,3-dimethoxy-2-propanyl)-5-phenyl-4H-1,2,4-triazol-3-yl)-1-methoxy-2-propanesulfonamide] | 16 | 
11 | COCC1(n2c(NS(=O)(=O)[C@@H](C)[C@H](OC)c3ncc(Cl)cn3)nnc2-c2ccccc2)CC1 [Example 97.0, (1R,2S)-1-(5-Chloro-2-pyrimidinyl)-1-methoxy-N-(4-(1-(methoxymethyl)cyclopropyl)-5-phenyl-4H-1,2,4-triazol-3-yl)-2-propanesulfonamide] | 1 | 
12 | CO[C@H](c1ncc(Cl)cn1)[C@H](C)S(=O)(=O)Nc1nnc(-c2ccccc2)n1C1(C)CC1 [Example 98.0] | 3.3 | 
13 | Cc1cnc([C@H](OC(C)C)[C@H](C)S(=O)(=O)Nc2nnc(-c3ccccc3)n2C2(C)CC2)nc1 [Example 99.0] | 8 | 
14 | CO[C@H](c1ncc(Cl)cn1)[C@H](C)S(=O)(=O)Nc1nnc(-c2ccccc2)n1C(C)C [Example 110.0] | 75 | 
15 | COCC1(n2c(NS(=O)(=O)[C@@H](C)[C@H](OC)c3ncc(Cl)cn3)nnc2-c2cccc3nn(C)cc23)CC1 [Example 114.0] | 53 | 
16 | CO[C@H](c1ncc(Cl)cn1)[C@H](C)S(=O)(=O)Nc1nnc(-c2cccc3nn(C)cc23)n1C1CC1 [Example 115.0] | 11 | 
17 | CO[C@H](c1ncc(Cl)cn1)[C@H](C)S(=O)(=O)Nc1nnc(-c2cccc3nn(C)cc23)n1C(C)C [Example 116.0] | 220 | 
18 | COCC1(n2c(NS(=O)(=O)[C@@H](C)[C@H](OC)c3ncc(Cl)cn3)nnc2-c2cccc3nn(C)cc23)CCC1 [Example 117.0] | 340 | 
19 | COc1ccccc1-c1nnc(NS(=O)(=O)[C@@H](C)[C@H](OC)c2ncc(Cl)cn2)n1[C@@H]1CCCOC1 [Example 118.0] | 180 | 
20 | COc1cccc(-c2nnc(NS(=O)(=O)[C@@H](C)[C@H](OC)c3ncc(Cl)cn3)n2[C@H]2CCCOC2)c1 [Example 119.0] | 22 | 
21 | Cc1cnc([C@@H](C)[C@H](C)S(=O)(=O)Nc2nnc(-c3cccc4nn(C)cc34)n2C2CCOCC2)nc1 [Example 120.0] | 590 | 
22 | CO[C@H](c1ncc(Cl)cn1)[C@H](C)S(=O)(=O)Nc1nnc(-c2cccc(S(C)(=O)=O)c2)n1C1CC1 [Example 121.0, (1R,2S)-1-(5-Chloropyrimidin-2-yl)-N-(4-cyclopropyl-5-(3-(methylsulfonyl)phenyl)-4H-1,2,4-triazol-3-yl)-1-methoxypropane-2-sulfonamide] | 590 | 
23 | CO[C@H](c1ncc(Cl)cn1)[C@H](C)S(=O)(=O)Nc1nnc(-c2cccc(OC(F)F)c2)n1C1CC1 [Example 122.0, (1R,2S)-1-(5-Chloropyrimidin-2-yl)-N-(4-cyclopropyl-5-(3-(difluoromethoxy)phenyl)-4H-1,2,4-triazol-3-yl)-1-methoxypropane-2-sulfonamide] | 250 | 
24 | COCC(COC)n1c(NS(=O)(=O)[C@@H](C)[C@@H](OC(C)C)c2ncc(Cl)cn2)nnc1-c1ccccc1 [Example 123.0] | 7.2 | 
25 | COC[C@@H](C)n1c(NS(=O)(=O)[C@@H](C)[C@H](OC)c2ncc(Cl)cn2)nnc1-c1ccccc1 [Example 124.0] | 57 | 
26 | COC[C@H](C)n1c(NS(=O)(=O)[C@@H](C)[C@H](C)c2ncc(Cl)cn2)nnc1-c1ccccc1 [Example 126.0] | 17 | 
27 | COc1ncnc(OC)c1-n1c(NS(=O)(=O)[C@@H](C)[C@H](C)c2ccc(Cl)cn2)nnc1-c1ccccc1 [Example 127.0] | 0.96 | 
28 | COc1cnc([C@@H](C)[C@H](C)S(=O)(=O)Nc2nnc(-c3ccccc3Br)n2C2COC(C)(C)OC2)nc1 [Example 128.0] | 910 | 
29 | COCCn1c(NS(=O)(=O)[C@@H](C)[C@H](OC)c2ncc(Cl)cn2)nnc1-c1ccccc1 [Example 129.0] | 14 | 
30 | CCCCc1nc(Cl)c(CO)n1Cc1ccc(-c2ccccc2-c2nn[nH]n2)cc1 [losartan] |  | positive cooperativity on AngII IP1 response [2]: relieved this cooperativity
